# In paper PMC9501899 (Journal of the American Chemical Society, 2022):
# pIC50: −log10 of the molar value. Like-named read-outs stand apart in the source and are kept apart here.
# How the values were obtained:
# LRRK2 [1] = test: Western blot screening of PROTACs in WT and G2019S LRRK2 MEFs; type: cell-based, mouse
# Experimental: These PROTACs were then biologically evaluated in mouse embryonic fibroblasts (MEFs) by Western blotting. Briefly, MEFs were treated with compounds at 33 nM and 1 μM for 4 h (Figure 2) and 24 h (Figure S2) separately, and the intracellular level of LRRK2, phosphorylated LRRK2 at Ser935, and phosphorylated Rab10 (pRab10) at Thr73 was determined. Rab10[5],[49] is one of the bona fide substrates of LRRK2, whose phosphorylation status is directly affected by the LRRK2 kinase activity and protein level. Phosphorylation of LRRK2 at Ser935 is a well-studied biomarker site used to assess the efficacy of type 1 LRRK2 inhibitors.[30]
# Primary MEFs were generated as described in a previous study.[80] Briefly, the uterine horn was collected from adult female mice at day E12.5 and transferred to a 10 cm tissue culture dish containing cold PBS. Two forceps were used to tear the yolk sacs to isolate each embryo. Forceps were cleaned thoroughly with 70% ethanol between each embryo isolation. The embryos were culled, and a tissue piece was collected in a polymerase chain reaction (PCR) tube for genotyping. The red tissue of the embryo was removed, and the remainder was minced with a scalpel blade and incubated with a 7.5 mL trypsin–ethylenediaminetetraacetic acid (EDTA) solution for 10 min in a 37 °C, 5% CO2 tissue culture incubator. The dish was removed from the incubator and checked under a light microscope for single cells. Complete media (7.5 mL) was added to the trypsinized cells, and the cell suspension was transferred to a 15 mL Falcon tube and centrifuged at 1200 rpm for 5 min at room temperature. The trypsin was aspirated, the cell pellet was resuspended in a 5 mL fresh complete media, and the cell suspension was plated in a 60 mm tissue culture dish and incubated in a 37 °C, 5% CO2 tissue culture incubator. The MEFs at this stage were considered as passage 0 and were passaged and expanded for experimental use once the genotype was confirmed by allelic sequencing and immunoblotting. MEFs were cultured in Dulbecco’s modified Eagle’s medium (DMEM) containing 10% (v/v) fetal bovine serum (FBS), 2 mM L-glutamine, 100 U/mL penicillin, and 100 μg/mL streptomycin supplemented with 1× nonessential amino acids and 1 mM sodium pyruvate.
# Culturing and passaging of adherent cell lines were carried out using an aseptic technique in CL1 or CL2 (for PBMC isolation) biological safety cabinets. All cells were incubated in a 37 °C incubator with 5% CO2. Cell lines were regularly tested for mycoplasma contamination. For Western blot assay, the cells were seeded in six-well plates.
# LRRK2 [2] = test: LRRK2 degradation in multiple cell lines (summary); type: cell-based
# Description: Leucine-rich repeat kinase 2 (LRRK2) is one of the most promising targets for Parkinson’s disease.
# Plasma stability assay = type: in vitro ADME; details: mouse plasma, 37 °C; read-out: T1/2 in mouse plasma
# Experimental: Frozen plasma was thawed at 37 °C and centrifuged at 3000 rpm for 8 min to remove clots, and the supernatant was used in the experiment. The pH of the plasma was recorded, and only the pH range between 7.4 and 8 was used. The plasma and compound solution were prewarmed to 37 °C. Ten microliters of prewarmed testing compound or reference compound (procaine) solution (20 μM in 0.05 mM sodium phosphate buffer (pH 7.4) with 0.5% BSA) was mixed with 90 μL of plasma at different time points to allow for 5, 15, 30, 45, and 60 min of incubation time. For 0 min, the plasma was mixed with vehicle only. Acetonitrile was added to the compound and plasma mixture to quench the reaction, and the resulting mixture was centrifuged (5594g for 15 min). The supernatant was taken and diluted before LC-MS analysis.
# LRRK1, VPS35, PPM1H = test: TMT-based global proteomic profiling in WT MEFs, LRRK2-related proteins; type: cell-based, mouse; details: 300 nM, 4 h
# [3] = Pharmacokinetic (PK) study in mice; type: in vivo, C57BL/6 male mice; details: for bioavailability: C57BL/6, plasma, mouse
# Experimental: Data are mean (±standard deviation (SD)) from three mice at each time point. […]
# PK profiling was outsourced and undertaken by Shanghai ChemPartner Co., Ltd. All animal experiments performed were conducted in compliance with the Institutional Animal Care and Use Committee (IACUC) and the Office of Laboratory Animal Welfare (OLAW) guidelines. Six to eight week old C57BL/6 male mice purchased from Jihui Laboratory Animal Co., Ltd. were used in the study. […] The animals were restrained manually at the designated time points (0.083, 0.25, 0.5, 1, 2, 4, and 8 h); approximately, 110 μL of blood sample was collected via facial vein into K2EDTA tubes. Three mice per time point were used, resulting in a total of 21 mice for each administration route. The blood sample was put on ice and centrifuged at 2000g for 5 min to obtain the plasma sample within 15 min. The plasma, brain, and CSF samples were stored at approximately −70 °C until analysis. A 30 μL aliquot of plasma was added with 200 μL of internal standard (Glipozode, 40 ng/mL) in MeCN with 5% Citri. The mixture was then vortexed for 1 min and then centrifuged for 10 min at 5800 rpm. The supernatant (100 μL) was transferred to a new plate. The solution (1 μL) was injected into LC-MS/MS. LC-MS/MS instrument used: SCIEX LC-MS/MS-49 (Triple Quad 6500+). Data were analyzed by WinNonLin and Microsoft Excel.
# LRRK2-NanoLuc = target: T1, LRRK2-NanoLuc (Homo sapiens, UniProt Q5S007); test: NanoBRET binary LRRK2 binding in HEK293 lysate; details: compound alone, lysate of HEK293 cells, LRRK2 tracer
# T1 construct: host or cells: HEK293
# Experimental: In the maximum signal control samples (DMSO control), DMSO was added instead of testing compounds.
# [4] = male, C57BL/6, IP 30 mg/kg, mouse plasma
# [5] = male, C57BL/6, IV 5 mg/kg, mouse plasma
# [6] = male, C57BL/6, PO 30 mg/kg, mouse plasma
# T1 sequence (Q5S007 whole entry): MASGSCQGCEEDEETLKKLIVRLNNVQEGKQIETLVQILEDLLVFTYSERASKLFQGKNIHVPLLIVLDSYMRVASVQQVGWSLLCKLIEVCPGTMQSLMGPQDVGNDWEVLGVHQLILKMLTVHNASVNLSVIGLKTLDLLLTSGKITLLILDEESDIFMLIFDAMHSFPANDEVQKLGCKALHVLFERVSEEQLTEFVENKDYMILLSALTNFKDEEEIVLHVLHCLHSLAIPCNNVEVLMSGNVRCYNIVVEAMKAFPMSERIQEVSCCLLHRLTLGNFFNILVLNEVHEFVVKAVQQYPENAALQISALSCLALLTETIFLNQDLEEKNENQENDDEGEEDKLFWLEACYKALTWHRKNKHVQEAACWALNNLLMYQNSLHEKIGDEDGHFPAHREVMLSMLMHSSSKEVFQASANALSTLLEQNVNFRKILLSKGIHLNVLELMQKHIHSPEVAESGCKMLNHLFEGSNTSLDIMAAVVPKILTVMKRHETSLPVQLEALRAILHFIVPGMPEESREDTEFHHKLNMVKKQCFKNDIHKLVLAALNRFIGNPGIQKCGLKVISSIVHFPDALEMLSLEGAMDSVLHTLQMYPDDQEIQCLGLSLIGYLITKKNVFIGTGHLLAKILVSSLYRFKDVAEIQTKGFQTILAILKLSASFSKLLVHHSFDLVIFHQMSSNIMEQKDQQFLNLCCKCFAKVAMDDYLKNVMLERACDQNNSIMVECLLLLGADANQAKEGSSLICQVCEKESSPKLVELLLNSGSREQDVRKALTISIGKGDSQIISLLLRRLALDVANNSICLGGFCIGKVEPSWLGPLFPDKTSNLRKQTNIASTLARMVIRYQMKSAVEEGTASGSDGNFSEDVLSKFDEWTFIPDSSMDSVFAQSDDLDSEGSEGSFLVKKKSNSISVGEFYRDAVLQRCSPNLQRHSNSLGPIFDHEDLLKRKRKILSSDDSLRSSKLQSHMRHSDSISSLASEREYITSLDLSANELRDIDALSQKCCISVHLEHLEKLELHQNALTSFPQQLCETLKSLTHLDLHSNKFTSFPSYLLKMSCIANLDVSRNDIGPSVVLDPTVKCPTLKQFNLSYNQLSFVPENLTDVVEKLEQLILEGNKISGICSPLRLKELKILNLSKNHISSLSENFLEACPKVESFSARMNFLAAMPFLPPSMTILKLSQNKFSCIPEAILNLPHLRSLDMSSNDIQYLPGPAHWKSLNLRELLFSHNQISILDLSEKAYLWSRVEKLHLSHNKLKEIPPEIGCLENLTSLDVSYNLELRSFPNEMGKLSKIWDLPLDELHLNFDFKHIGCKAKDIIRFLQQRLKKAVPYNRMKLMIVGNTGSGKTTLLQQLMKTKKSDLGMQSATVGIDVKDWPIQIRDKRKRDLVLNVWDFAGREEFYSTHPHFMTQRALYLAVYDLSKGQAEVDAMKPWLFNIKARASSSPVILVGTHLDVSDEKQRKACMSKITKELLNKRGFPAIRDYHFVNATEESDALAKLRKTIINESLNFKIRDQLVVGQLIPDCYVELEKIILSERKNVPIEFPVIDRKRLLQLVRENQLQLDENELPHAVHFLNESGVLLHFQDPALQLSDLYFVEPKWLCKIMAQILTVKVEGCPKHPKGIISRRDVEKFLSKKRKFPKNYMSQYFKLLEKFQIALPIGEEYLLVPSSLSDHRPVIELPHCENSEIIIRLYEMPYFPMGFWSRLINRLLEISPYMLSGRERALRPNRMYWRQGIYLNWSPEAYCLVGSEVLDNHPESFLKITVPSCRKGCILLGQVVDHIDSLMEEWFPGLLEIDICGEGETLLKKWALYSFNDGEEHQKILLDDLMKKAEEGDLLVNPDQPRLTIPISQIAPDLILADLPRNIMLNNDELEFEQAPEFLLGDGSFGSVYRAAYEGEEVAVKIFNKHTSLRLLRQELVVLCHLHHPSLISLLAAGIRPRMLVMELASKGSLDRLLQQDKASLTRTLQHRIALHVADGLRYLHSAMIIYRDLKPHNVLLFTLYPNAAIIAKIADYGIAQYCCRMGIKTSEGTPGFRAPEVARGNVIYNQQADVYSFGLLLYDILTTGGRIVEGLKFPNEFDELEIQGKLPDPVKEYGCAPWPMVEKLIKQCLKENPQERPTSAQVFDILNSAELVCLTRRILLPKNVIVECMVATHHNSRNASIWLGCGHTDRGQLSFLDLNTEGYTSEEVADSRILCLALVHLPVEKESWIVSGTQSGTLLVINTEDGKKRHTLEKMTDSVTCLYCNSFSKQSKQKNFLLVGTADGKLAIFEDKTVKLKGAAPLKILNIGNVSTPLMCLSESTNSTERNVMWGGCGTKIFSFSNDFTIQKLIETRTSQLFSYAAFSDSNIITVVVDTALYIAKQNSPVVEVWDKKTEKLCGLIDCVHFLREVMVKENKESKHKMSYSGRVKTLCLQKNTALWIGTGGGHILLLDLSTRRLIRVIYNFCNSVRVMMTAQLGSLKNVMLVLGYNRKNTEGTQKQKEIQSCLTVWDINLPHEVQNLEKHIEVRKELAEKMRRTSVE
structure (smiles),measurement,setting,value
CNc1nc(Nc2ccc(C(=O)N3CCN(CCOCCOCCSC(C)(C)[C@H](NC(=O)C4(F)CC4)C(=O)N4C[C@H](O)C[C@H]4C(=O)NCc4ccc(-c5scnc5C)cc4)CC3)cc2OC)ncc1Cl [SD75],degradation of LRRK2,LRRK2 [1]; 0.033 µM,< 40%
same,degradation of LRRK2 (in words),"LRRK2 [1]; 33 nM/4 h, WT and G2019S LRRK2 MEFs",little to no degradation
"CNc1nc(Nc2ccc(C(=O)N3CCN(C[C@H]4CC[C@H](CSC(C)(C)[C@H](NC(=O)C5(F)CC5)C(=O)N5C[C@H](O)CC5C(=O)NCc5ccc(-c6scnc6C)cc5)CC4)CC3)cc2OC)ncc1Cl (stereo partly drawn) [XL01126, (2S,4R)-1-((R)-3-((((1R,4R)-4-((4-(4-((5-Chloro-4-(methylamino)pyrimidin-2-yl)amino)-3-methoxybenzoyl)piperazin-1-yl)methyl)cyclohexyl)methyl)thio)-2-(1-fluorocyclopropane-1-carboxamido)-3-methylbutanoyl)-4-hydroxy-N-(4-(4-methylthiazol-5-yl)benzyl)pyrrolidine-2-carboxamide]",DC50,LRRK2 [2],0.014 to 0.072 µM
same,Dmax values,LRRK2 [2],82 to 90%
same,half-life at 2 µM,Plasma stability assay,1.8 h
same,"levels of LRRK1, VPS35 and PPM1H (in words)","LRRK1, VPS35, PPM1H",remained unaffected
same,Kp,"[3]; male, C57BL/6, mouse, brain, other: IV, mice, single dose IV, IP or PO, read-out: brain-to-plasma ratio",< 0.035
same,bioavailability,"[3]; male, IP 30 mg/kg, read-out: F",29.2%
same,bioavailability,"[3]; male, PO 30 mg/kg, read-out: F, oral bioavailability",15%
same,AUC(0-inf),[3]; [4],64100 ng·h/mL
same,AUC(0-t),[3]; [4],41400 ng·h/mL
same,Cmax,[3]; [4],7700 ng/mL
same,Tmax,[3]; [4],0.25 h
same,half-life,[3]; [4],5.2 h
same,AUC(0-inf),[3]; [5],24000 ng·h/mL
same,AUC(0-t),[3]; [5],23700 ng·h/mL
same,MRT,[3]; [5],2.45 h
same,clearance,[3]; [5],3.47 mL/min/kg
same,half-life,[3]; [5],1.52 h
same,Vd,"[3]; male, C57BL/6, IV 5 mg/kg, mouse plasma, read-out: Vss",0.511 L/kg
same,AUC(0-inf),[3]; [6],109000 ng·h/mL
same,AUC(0-t),[3]; [6],21300 ng·h/mL
same,Cmax,[3]; [6],3620 ng/mL
same,Tmax,[3]; [6],2 h
same,half-life,[3]; [6],21.9 h
same,presence in brain tissues and CSF (in words),"[3]; mice, single dose IV, IP or PO",detected in brain tissues and CSF
same,pIC50,LRRK2-NanoLuc,5.70
